Results on two molecules are retold here after US8173812B2, “Quinolines and their therapeutic use” (Pulmagen Therapeutics (Asthma) Limited, priority 2007, dated 2012).

Structures are written as SMILES.

The experiment has as its target T1, CRTH2 receptor (Homo sapiens, UniProt Q9Y5Y4).
T1 sequence (Q9Y5Y4 1-395): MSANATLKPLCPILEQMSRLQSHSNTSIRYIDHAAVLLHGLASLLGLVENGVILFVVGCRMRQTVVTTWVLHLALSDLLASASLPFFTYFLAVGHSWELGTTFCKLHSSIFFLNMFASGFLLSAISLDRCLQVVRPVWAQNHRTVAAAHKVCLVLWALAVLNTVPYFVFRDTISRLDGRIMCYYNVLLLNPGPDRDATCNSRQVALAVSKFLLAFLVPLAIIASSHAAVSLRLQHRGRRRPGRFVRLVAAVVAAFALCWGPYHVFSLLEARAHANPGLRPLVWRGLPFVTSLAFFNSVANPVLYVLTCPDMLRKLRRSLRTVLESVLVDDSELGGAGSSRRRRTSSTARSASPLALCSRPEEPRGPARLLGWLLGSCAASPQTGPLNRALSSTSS
Briefly: CRTH2 radioligand binding assay ([3H]-PGD2 displacement, SPA). Conditions: HEK cell membranes expressing the CRTH2 receptor, 1 nM [3H]-PGD2. How it is done:
Radioligand Binding Assay
The receptor binding assay is performed in a final volume of 200 μL binding buffer [10 mM BES (pH 7.4), 1 mM EDTA, 10 mM manganese chloride, 0.01% BSA] and 1 nM [^3H]-PGD2 (Amersham Biosciences UK Ltd). Ligands are added in assay buffer containing a constant amount of DMSO (1% by volume). Total binding is determined using 1% by volume of DMSO in assay buffer and non-specific binding is determined using 10 μM of unlabeled PGD2 (Sigma). Human embryonic kidney (HEK) cell membranes (3.5 μg) expressing the CRTH2 receptor are incubated with 1.5 mg wheatgerm agglutinin SPA beads and 1 nM [^3H]-PGD2 (Amersham Biosciences UK Ltd) and the mixture incubated for 3 hours at room temperature. Bound [^3H]-PGD2 is detected using a Microbeta TRILUX liquid scintillation counter (Perkin Elmer). Compound IC50 value is determined using a 6-point dose response curve in duplicate with a semi-log compound dilution series. IC50 calculations are performed using Excel and XLfit (Microsoft), and this value is used to determine a Ki value for the test compound using the Cheng-Prusoff equation.

A word on the IC50: it is the concentration that inhibits the measured activity by half. A higher IC50 goes with weaker potency. On to `CCc1nc2c(F)ccc(OCC(=O)O)c2c(OC(F)F)c1Cc1ccc(-n2cccn2)cc1` [Example 1, [4-difluoromethoxy-2-ethyl-8-fluoro-3-(4-pyrazol-1-ylbenzyl)quinolin-5-yloxy]acetic acid], for which the IC50 stood at 5.4 nM. This lies in the single-digit nanomolar range. On to `CCc1nc2c(F)ccc(OCC(=O)O)c2c(OC(F)F)c1Cc1ccc(-c2ncco2)cc1` [Example 2, [4-difluoromethoxy-2-ethyl-8-fluoro-3-(4-oxazol-2-ylbenzyl)quinolin-5-yloxy]acetic acid], for which the IC50 amounted to 6.3 nM. This IC50 and that of the molecule before are within 1.5-fold of each other.
